From PMC8237303 (Heliyon, 2021) come the findings set out here.

Test [1] concerns the target Testosterone receptor (Human) (Homo sapiens, UniProt P10275). Kind of test: [3H]-Methyltrienolone. Type of test: binding. The conditions noted are these: 0.1 mM l-menthol.
In test [2] the target is Muscarinic M1 receptor (Human) (Homo sapiens, UniProt P11229). The test can be described thus: [3H]-Scopolamine Methyl Chloride binding assay. The conditions noted are these: 0.1 mM l-menthol; Human recombinant.
Test [3] addresses Vasopressin V1 receptor (Rattus norvegicus, UniProt P30560). The test can be described thus: [3H]-Vasopressin, 8-L-Arginine binding assay. The conditions noted are these: 0.1 mM l-menthol; Rat liver.
Test [4] relates to Glutamate (NMDA polyamine site). The test can be described thus: [3H]-Ifenprodil binding assay. Particulars: 0.1 mM l-menthol; Rat cerebral cortex.
Test [5] deals with Angiotensin AT1 receptor (Human) (Homo sapiens, UniProt P30556). Kind of test: [125I]-Angiotensin II. It counts as binding. Particulars: 0.1 mM l-menthol; Human recombinant.
Test [6] deals with Endothelin ETA receptor (Human) (Homo sapiens, UniProt P25101). Kind of test: [125I]-Endothelin-1. Type of test: binding. The conditions noted are these: 0.1 mM l-menthol; Human recombinant.
For test [7], the system named is Glutamate receptor (NMDA phencycidine site). Kind of test: [3H]-. Type of test: binding. The conditions noted are these: 0.1 mM l-menthol; Rat cerebral cortex.
The target of test [8] is Opiate κ receptor (Human) (Homo sapiens, UniProt P41145). It counts as binding. Particulars: 0.1 mM l-menthol.
The subject of test [9] is Glutamate receptor (AMPA). The test can be described thus: D,L-alpha-[3H]-Amino-3-Hydroxy-Methylisoxazole-4-Propionic Acid. It counts as binding. Particulars: 0.1 mM l-menthol; Rat cerebral cortex.
For test [10], the target named is Serotonin transporter (Human) (Homo sapiens, UniProt P31645). Kind of test: [3H]-Imipramine hydrochloride binding assay. The conditions noted are these: 0.1 mM l-menthol; Human recombinant.
The target in test [11] is Bradykinin B2 receptor (Human) (Homo sapiens, UniProt P30411). Kind of test: [3H]-Bradykinin binding assay. Particulars: 0.1 mM l-menthol; Human recombinant.
Sequence of Bradykinin B2 receptor (Human) (P30411 whole entry): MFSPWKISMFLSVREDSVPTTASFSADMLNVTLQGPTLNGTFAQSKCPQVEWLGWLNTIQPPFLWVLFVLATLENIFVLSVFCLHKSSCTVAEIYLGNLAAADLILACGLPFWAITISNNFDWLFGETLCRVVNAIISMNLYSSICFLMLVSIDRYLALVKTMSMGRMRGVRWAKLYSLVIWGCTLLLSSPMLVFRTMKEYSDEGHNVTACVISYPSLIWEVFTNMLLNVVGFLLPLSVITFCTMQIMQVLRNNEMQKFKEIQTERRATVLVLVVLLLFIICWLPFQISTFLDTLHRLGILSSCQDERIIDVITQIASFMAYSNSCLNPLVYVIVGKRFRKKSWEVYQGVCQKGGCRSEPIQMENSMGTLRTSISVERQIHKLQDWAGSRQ

Sequence of Serotonin transporter (Human) (P31645 whole entry): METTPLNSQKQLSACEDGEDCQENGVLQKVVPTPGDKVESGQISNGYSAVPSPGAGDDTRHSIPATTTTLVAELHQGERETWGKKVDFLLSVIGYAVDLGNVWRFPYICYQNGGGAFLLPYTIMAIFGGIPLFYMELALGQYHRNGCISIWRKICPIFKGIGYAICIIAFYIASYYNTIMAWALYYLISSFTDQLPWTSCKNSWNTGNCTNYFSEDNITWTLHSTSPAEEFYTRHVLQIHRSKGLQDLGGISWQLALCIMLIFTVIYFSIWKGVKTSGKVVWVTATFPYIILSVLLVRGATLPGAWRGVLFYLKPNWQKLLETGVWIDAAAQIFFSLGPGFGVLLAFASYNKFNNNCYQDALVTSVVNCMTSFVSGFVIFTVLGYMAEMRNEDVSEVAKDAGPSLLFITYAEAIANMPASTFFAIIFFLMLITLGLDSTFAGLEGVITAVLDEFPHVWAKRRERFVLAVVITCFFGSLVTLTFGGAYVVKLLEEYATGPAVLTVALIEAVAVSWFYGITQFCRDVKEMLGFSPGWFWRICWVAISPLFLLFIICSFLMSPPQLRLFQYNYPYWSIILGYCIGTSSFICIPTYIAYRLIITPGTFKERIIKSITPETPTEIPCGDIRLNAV
Sequence of Testosterone receptor (Human) (P10275 whole entry): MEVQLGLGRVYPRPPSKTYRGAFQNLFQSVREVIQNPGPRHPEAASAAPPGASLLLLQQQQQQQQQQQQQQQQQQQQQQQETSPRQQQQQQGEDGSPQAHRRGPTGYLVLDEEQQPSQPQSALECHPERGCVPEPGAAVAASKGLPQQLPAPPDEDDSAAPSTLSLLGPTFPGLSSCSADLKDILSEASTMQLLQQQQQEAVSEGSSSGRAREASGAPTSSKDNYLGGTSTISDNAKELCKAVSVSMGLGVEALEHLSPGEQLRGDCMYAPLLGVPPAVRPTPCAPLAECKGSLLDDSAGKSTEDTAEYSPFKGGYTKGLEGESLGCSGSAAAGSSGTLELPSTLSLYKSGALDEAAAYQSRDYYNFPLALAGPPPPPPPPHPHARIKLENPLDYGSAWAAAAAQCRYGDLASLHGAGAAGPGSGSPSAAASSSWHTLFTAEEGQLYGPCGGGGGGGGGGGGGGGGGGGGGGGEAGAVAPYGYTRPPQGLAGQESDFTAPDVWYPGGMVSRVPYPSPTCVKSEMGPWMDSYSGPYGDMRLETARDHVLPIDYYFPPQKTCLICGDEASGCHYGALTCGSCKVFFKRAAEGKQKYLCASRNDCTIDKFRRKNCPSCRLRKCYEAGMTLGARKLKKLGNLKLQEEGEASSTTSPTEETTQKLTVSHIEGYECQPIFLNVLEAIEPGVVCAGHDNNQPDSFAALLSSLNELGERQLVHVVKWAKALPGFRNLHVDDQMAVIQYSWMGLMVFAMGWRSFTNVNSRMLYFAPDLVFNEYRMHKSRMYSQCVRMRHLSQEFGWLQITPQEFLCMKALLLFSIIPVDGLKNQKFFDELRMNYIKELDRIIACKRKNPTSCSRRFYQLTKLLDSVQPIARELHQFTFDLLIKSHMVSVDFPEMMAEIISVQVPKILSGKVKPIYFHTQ
Sequence of Muscarinic M1 receptor (Human) (P11229 whole entry): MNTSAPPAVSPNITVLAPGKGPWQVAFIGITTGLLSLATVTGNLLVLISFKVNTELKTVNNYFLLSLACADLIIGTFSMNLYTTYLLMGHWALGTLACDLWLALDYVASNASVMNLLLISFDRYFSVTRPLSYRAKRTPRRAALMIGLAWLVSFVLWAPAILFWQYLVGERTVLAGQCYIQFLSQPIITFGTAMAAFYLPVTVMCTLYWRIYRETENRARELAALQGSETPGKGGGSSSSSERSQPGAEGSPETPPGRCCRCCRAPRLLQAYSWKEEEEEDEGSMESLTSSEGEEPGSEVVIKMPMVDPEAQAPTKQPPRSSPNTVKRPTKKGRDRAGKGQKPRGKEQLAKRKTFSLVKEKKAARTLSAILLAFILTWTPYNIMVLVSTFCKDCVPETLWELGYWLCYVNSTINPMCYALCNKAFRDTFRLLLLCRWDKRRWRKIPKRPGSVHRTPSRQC
Sequence of Opiate κ receptor (Human) (P41145 whole entry): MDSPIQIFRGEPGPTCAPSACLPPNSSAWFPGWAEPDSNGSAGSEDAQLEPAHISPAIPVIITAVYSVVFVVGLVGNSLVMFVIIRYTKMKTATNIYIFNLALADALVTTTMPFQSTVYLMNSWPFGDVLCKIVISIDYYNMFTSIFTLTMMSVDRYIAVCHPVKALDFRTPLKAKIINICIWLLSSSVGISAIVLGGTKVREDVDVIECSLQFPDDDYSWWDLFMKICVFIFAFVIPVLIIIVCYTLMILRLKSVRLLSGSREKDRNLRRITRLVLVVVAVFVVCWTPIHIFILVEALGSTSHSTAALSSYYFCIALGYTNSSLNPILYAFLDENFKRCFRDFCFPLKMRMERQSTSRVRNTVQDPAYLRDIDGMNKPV
Sequence of Angiotensin AT1 receptor (Human) (P30556 whole entry): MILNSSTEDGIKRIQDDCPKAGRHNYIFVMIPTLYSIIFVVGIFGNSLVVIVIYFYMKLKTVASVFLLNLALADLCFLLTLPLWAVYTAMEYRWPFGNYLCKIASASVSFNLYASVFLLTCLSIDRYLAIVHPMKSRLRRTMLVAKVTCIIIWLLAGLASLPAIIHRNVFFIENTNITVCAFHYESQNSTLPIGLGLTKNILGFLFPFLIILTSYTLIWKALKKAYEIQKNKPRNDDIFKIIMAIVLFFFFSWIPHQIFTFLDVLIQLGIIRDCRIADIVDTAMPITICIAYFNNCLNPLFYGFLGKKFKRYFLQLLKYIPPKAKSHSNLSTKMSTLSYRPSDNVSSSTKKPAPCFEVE
Sequence of Vasopressin V1 receptor (P30560 whole entry): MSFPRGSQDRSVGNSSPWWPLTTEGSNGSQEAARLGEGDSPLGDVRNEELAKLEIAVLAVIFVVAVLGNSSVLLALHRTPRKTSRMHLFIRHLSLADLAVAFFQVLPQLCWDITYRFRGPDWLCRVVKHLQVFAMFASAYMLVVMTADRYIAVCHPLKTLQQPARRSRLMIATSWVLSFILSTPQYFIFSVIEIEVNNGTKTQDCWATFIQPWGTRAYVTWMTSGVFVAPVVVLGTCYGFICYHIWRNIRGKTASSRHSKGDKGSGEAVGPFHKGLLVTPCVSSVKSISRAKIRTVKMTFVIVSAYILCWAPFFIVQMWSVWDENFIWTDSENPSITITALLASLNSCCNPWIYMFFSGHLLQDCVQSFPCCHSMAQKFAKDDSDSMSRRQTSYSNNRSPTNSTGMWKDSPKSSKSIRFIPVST
Sequence of Endothelin ETA receptor (Human) (P25101 21-427): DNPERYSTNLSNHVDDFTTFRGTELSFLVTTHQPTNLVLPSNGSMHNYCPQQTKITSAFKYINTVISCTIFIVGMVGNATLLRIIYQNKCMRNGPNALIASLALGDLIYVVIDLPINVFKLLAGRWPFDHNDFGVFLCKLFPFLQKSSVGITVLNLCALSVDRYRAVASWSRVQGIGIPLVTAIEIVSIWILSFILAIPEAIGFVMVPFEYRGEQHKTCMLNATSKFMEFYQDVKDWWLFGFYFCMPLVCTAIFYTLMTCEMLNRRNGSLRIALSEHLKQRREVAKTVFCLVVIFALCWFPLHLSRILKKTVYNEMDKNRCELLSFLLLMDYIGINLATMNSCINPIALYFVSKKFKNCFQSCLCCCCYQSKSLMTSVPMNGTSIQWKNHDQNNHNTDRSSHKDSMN

In the case of `CC(C)[C@@H]1CC[C@@H](C)C[C@H]1O` [l-menthol], the “Inhibition by l-Menthol (%)” value came out at 0% in test [1]; 0% in [2]; 0% in test [3]; 3.79% in test [4]; 16.92% in test [5]; 0% in test [6]. Further, the “Inhibition by l-Menthol (%)” value in [7] is given as 1.27%; in test [8], 4.86%; in [9], 0%; in test [10], 0%; in test [11] it was 7.88%.
